Patent US6462069B2, “Compounds, pharmaceutical compositions, and methods for inhibiting protein kinases” (Agouron Pharmaceuticals, Inc., priority 2000, dated 2002)

How the values were obtained:
CDK4/cyclin D3 complex = molecular target: T1, CDK4/cyclin D3 complex (Homo sapiens, UniProt P11802); assay: Inhibition of CDK4/Cyclin D retinoblastoma kinase activity; format: biochemical; details: for Ki: apparent Ki
T1 construct: made in house; host or cells: insect cells co-infected with baculovirus expression vectors
T1 sequence (P11802 whole entry): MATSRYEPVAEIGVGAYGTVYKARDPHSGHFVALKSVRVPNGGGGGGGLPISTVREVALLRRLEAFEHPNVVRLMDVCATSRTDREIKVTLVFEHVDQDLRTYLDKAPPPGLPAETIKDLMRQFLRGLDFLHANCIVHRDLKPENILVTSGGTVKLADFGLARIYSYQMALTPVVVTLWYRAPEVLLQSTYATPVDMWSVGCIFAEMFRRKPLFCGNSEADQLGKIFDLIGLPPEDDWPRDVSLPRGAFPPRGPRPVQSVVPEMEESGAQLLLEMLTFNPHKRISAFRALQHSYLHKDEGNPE
T1 sequence (P30281 whole entry partner): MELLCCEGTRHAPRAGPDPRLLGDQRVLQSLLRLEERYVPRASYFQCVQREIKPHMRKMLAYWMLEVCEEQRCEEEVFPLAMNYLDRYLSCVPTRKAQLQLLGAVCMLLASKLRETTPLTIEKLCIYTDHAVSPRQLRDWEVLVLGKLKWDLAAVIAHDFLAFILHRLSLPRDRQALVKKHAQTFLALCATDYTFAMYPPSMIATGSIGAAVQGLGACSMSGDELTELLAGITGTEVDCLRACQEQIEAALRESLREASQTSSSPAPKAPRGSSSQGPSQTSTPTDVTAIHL
Experimental: (§1) Cyclin-dependent kinase activity was measured by quantifying the enzyme-catalyzed, time-dependent incorporation of radioactive phosphate from [^32P]ATP or [^33P]ATP into a protein substrate. Unless noted otherwise, assays were performed in 96-well plates in a total volume of 50 μL, in the presence of 10 mM HEPES (N-[2-hydroxyethyl]piperazine-N′-[2-ethanesulfonic acid]) (pH 7.4). 10 mM MgCI2, 25 μM adenosine triphosphate (ATP), 1 mg/mL ovalbumin, 5 μg/mL leupeptin, 1 mM dithiothreitol, 10 mM beta-glycerophosphate, 0.1 mM sodium vanadate, 1 mM sodium fluoride, 2.5 mM ethylene glycol-bis(β-aminoethyl ethKer)-N,N,N′N′-tetraacetic acid (EGTA), 2% (v/v) dimethylsulfoxide, and 0.03-0.4 μCi [^32/33P]ATP per reaction. Reactions were initiated with enzyme, incubated at 30° C. and terminated after 20 minutes by the addition ofethylenediaminetetraacetic acid (EDTA) to 250 mM. The phosphorylated substrate was then captured on a nitrocellulose or phosphocellulose membrane using a 96-well filtration manifold, and unincorporated radioactivity was removed by repeated washing with 0.85% phosphoric acid. Radioactivity was quantified by exposing the dried membranes to a phosphorimager.
(§2) Apparent Ki values were measured by assaying enzyme activity in the presence of different inhibitor compound concentrations and subtracting the background radioactivity measured in the absence of enzyme. Inhibition data were fit to an equation for competitive inhibition using Kaleidagraph (Synergy Software), or were fit to an equation for competitive tight-binding inhibition using the software KineTic (BioKin, Ltd.).
A complex of human CDK4 and cyclin D3, or a complex of human CDK4 and genetically truncated (1-264) cyclin D3, was purified using traditional biochemical chromatographic techniques from insect cells that had been co-infected with the corresponding baculovirus expression vectors ((see e.g., Meijer and Kim, “Chemical Inhibitors of Cyclin-Dependent Kinases,” Methods in Enzymol,. vol. 283, pp. 113-128 (1997)). The enzyme complex (5 or 50 nM) was assayed with 0.3-0.5 μg of purified recombinant retinoblastoma protein fragment (Rb) as a substrate. The engineered Rb fragment (residues 386-928 of the native retinoblastoma protein; 62.3 kDa) contains the majority of the phosphorylation sites found in the native 106-kDa protein, as well as a tag of six histidine residues for ease of purification. Phosphorylated Rb substrate was captured by microfiltration on a nitrocellulose membrane and quantified using a phosphorimager as described above. For measurement of tight-binding inhibitors, the enzyme complex concentration was lowered to 5 nM, and the assay duration was extended to 60 minutes, during which the time-dependence of product formation was linear.

CDK2/cyclin A complex = molecular target: T2, CDK2/cyclin A complex (Homo sapiens, UniProt P24941); assay: Inhibition of CDK2/Cyclin A retinoblastoma kinase activity; format: biochemical; details: for Ki: apparent Ki
T2 construct: made in house; host or cells: CDK2: insect cells (baculovirus); cyclin A: E. coli
Experimental: as §1, §2
CDK2 was purified using published methodology (Rosenblatt et al., “Purification and Crystallization of Human Cyclin-dependent Kinase 2,” J. Mol. Biol., vol. 230, pp. 1317-1319 (1993)) from insect cells that had been infected with a baculovirus expression vector. […] Ki values were measured as described above.

HCT 116 cell line = assay: Inhibition of cell growth, MTT tetrazolium salt assay; format: cell-based; details: Homo sapiens, HCT116 cells; for IC50: 50% inhibition of growth, read-out: HCT116 IC 50
Experimental: Inhibition of cell growth was measured using the tetrazolium salt assay, which is based on the ability of viable cells to reduce 3-(4,5-dimethylthiazol-2-yl)-2,5-[2H]-diphenyltetrazolium bromide (MTT) to formazan (Mossman, Journal of Immunological Methods, vol.65, pp. 55-58(1983)). The water-insoluble purple formazan product was then detected spectrophotometrically. The HCT 116 cell line was grown in 96-well plates. Cells were plated in the appropriate medium at a volume of 135 μl/well in McCoy's 5A Medium. Plates were incubated for four hours before addition of inhibitor compounds. Different concentrations of inhibitor compounds were added in 0.5% (v/v) dimethylsulfoxide (15 μL/well), and cells were incubated at 37° C. (5% CO2) for four to six days (depending on cell type). At the end of the incubation, MTT was added to a final concentration of 0.2 mg/mL, and cells were incubated for 4 hours more at 37° C. After centrifugation of the plates and removal of medium, the absorbance of the formazan (solubilized in dimethylsulfoxide) was measured at 540 nm. The concentration of inhibitor compound causing 50% inhibition of growth was determined from the linear portion of a semi-log plot of inhibitor concentration versus percentage inhibition. All results were compared to control cells treated only with 0.5% (v/v) dimethylsulfoxide.

[1] = molecular target: T3, full-length human CHK1 (FL-CHK1) (Homo sapiens, UniProt O14757); assay: CHK1 assay (coupled spectrophotometric); format: biochemical
T3 construct: C-terminally His-tagged full-length human CHK1 (FL-CHK1); made in house; host or cells: baculovirus/insect cell system
T3 sequence (O14757 1-476): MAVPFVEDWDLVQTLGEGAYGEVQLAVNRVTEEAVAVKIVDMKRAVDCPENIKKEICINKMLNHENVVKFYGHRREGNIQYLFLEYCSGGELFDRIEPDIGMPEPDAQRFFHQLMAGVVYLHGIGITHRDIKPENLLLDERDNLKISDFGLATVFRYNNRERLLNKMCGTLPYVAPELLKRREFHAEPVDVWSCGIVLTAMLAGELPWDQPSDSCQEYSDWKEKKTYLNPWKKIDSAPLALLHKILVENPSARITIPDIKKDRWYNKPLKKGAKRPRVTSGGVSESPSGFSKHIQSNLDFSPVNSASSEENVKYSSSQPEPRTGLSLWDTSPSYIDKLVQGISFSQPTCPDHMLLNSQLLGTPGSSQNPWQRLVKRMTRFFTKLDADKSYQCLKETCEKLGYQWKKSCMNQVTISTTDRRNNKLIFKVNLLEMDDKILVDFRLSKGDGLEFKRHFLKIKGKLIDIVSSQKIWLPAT
From the text: C-terminally His-tagged full-length human CHK1 (FL-CHK1) was expressed using the baculovirus/insect cell system. It contains 6 histidine residues (6×His-tag) at the C-terminus of the 476 amino acid human CHK1. The protein was purified by conventional chromatographic techniques.
The production of ADP from ATP that accompanies phosphoryl transfer to the synthetic substrate peptide Syntide-2 ([…]) was coupled to oxidation of NADH using phosphoenolpyruvate (PEP) through the actions of pyruvate kinase (PK) and lactic dehydrogenase (LDH). The oxidation of NADH was monitored by following the decrease of absorbance at 340 nm (∈340=6.22 cm^−1 mM^−1) using a HP8452 spectrophotometer. Typical reaction solutions contained: […] PEP; 0.15 mM NADH; 28 units of LDH/ml; 16 units of PK/ml; 3 mM DTT; 0.125 mM Syntide-2: 0.15 mM ATP; 25 mM MgCI2 in 50 mM TRIS, pH 7.5; and 400 mM NaCl. Assays were initiated with 10 nM of FL-CHK1. Ki values were determined by measuring initial enzyme activity in the presence of varying concentrations of test compounds. The data were analyzed using Enzyme Kinetic and Kaleidagraph software.

SMILES | Ki (CDK4/cyclin D3 complex) [µM] | Ki (CDK2/cyclin A complex) [nM] | other results
COc1cccc(-c2cccc3c(-c4cc(Nc5ccc(S(N)(=O)=O)cc5)n[nH]4)csc23)c1 [Compound Q, 4-{5-[7-(3-Methoxy-phenyl)-benzo[b]thiophen-3-yl]-1H-pyrazol-3-ylamino]-benzenesulfonamide] |  |  | inhibition at 5 µM (CDK4/cyclin D3 complex; at 5 μM, read-out: Percent Inhibition CDK4/D): 13%; inhibition at 5 µM (CDK2/cyclin A complex; at 5 μM, read-out: Percent Inhibition CDK2/A): 21%
c1ccc(Nc2cc(-c3cscc3Sc3ccccc3)[nH]n2)cc1 [Compound I, Phenyl-[5-(4-phenylsulfanyl-thiophene-3-yl)-1H-pyrazol-3-yl]-amine] | 4.7 |  | 
c1ccc(Nc2cc(-c3cscc3C3CCCCC3)[nH]n2)cc1 [Compound H, [5-(4-Cyclohexyl-thiophen-3-yl)-1H-pyrazol-3-yl]-phenyl-amine] | 3 | 3000 | 
NS(=O)(=O)c1ccc(Nc2cc(-c3csc4c(-c5ccc(O)cc5)cccc34)[nH]n2)cc1 [Compound T, 4-{5-[7-(4-Hydroxy-phenyl)-benzo[b]thiophen-3-yl]-1H-pyrazol-3-ylamino]-benzenesulfonamide] | 2.1 | 3200 | 
c1ccc(Nc2n[nH]c3c2-c2ccccc2C3)cc1 [Compound D, (1,8-Dihydro-indeno[2,1-c]pyrazol-3-yl)-phenyl-amine] | 7.4 | 25000 | 
NS(=O)(=O)c1ccc(Nc2cc(-c3csc4c(-c5cccc(O)c5)cccc34)[nH]n2)cc1 [Compound R, 4-{5-[7-(3-Hydroxy-phenyl)-benzo[b]thiophen-3-yl]-1H pyrazol-3-ylamino]-benzenesulfonamide] | 3.3 | 2700 | inhibition at 10 µM ([1]; at 10 μM, read-out: Percent Inhibition CHK1): 8%
Brc1cscc1-c1cc(Nc2ccccc2)n[nH]1 [Compound E, [5-(4-Bromo-thiophen-3-yl)-1H-pyrazol-3-yl]1-phenyl-amine] | 9.7 | 22000 | 
C(=C\c1cscc1-c1cc(Nc2ccccc2)n[nH]1)/c1ccccc1 [Compound F, Phenyl-[5-(4-trans-styryl-thiophen-3-yl]-1H-pyrazol-3-yl]-amine] |  |  | inhibition at 10 µM (CDK4/cyclin D3 complex; at 10 μM, read-out: Percent Inhibition CDK4/D): 25%; inhibition at 10 µM (CDK2/cyclin A complex; at 10 μM, read-out: Percent Inhibition CDK2/A): 37%
NS(=O)(=O)c1ccc(Nc2cc(-c3c[nH]c4ccccc34)[nH]n2)cc1 [Compound X, 4-[5-(1H-Indol-3-yl)-1H-pyrazol-3-ylamino]-Benzenesulfonamide] | 12 | 390 | Ki [1]: 1800 nM
COc1ccc2c(-c3cc(Nc4ccc(S(N)(=O)=O)cc4)n[nH]3)csc2c1 [Compound V, 4-[5-(6-Methoxy-benzo[b]Thiophen-3-yl)-1H-pyrazol-3-ylamino]-Benzenesulfonamide] | 12 | 270 | 
NS(=O)(=O)c1ccc(Nc2cc(-c3csc4c(Br)cccc34)[nH]n2)cc1 [Compound P, 4-[5-(7-Bromo-benzo[b]thiophen-3-yl)-1H-pyrazol-3-ylamino]-benzenesulfonamide] | 2.1 | 110 | 
C1=C(c2cscc2-c2cc(Nc3ccccc3)n[nH]2)CCCC1 [Compound G, [5-(4-Cyclohex-1-enyl-thiophen-3-yl)-1H-pyrazol-3-yl]-phenyl-amine] | 10 | 10000 | 
c1ccc(Nc2cc(-c3c[nH]c4ccccc34)[nH]n2)cc1 [Compound J, [5-(1H-Indol-3-yl)-1H-pyrazol-3-yl]-phenyl-amine] | 12 | 15000 | Ki [1]: 18000 nM
c1ccc(Nc2cc(-c3cccnc3)[nH]n2)cc1 [Compound C] | 59 | 61000 | Ki [1]: 1500 nM

Second part, led by results:

Ki (CDK4/cyclin D3 complex) [µM] | Ki (CDK2/cyclin A complex) [nM] | SMILES | other results
4.7 | 6300 | COc1ccc(Nc2cc(-c3csc4ccccc34)[nH]n2)cc1 [Compound K, (5-Benzo[b]thiophen-3-yl-1H-pyrazol-3-yl)-4-(methoxy-phenyl)-amine] | 
0.9 | 16 | NS(=O)(=O)c1ccc(Nc2cc(-c3csc4cc(O)ccc34)[nH]n2)cc1 [Compound W, 4-[5-(6-Hydroxy-benzo[b]Thiophen-3-yl)-1H-pyrazol-3-ylamino]-Benzenesulfonamide] | IC50 (HCT 116 cell line): 20 µM
4.1 | 21000 | COc1cccc(Nc2cc(-c3csc4ccccc34)[nH]n2)c1 [Compound M] | 
1.6 | 62 | NS(=O)(=O)c1ccc(Nc2cc(-c3csc4ccccc34)[nH]n2)cc1 [Compound O] | IC50 (HCT 116 cell line): 9.5 µM; IC90 (HCT 116 cell line; read-out: HCT116 IC 90): 24 µM
4.9 | 2400 | Oc1cccc(Nc2cc(-c3csc4ccccc34)[nH]n2)c1 [Compound N, 3-(Benzo[b]thiophen-3-yl-1H-pyrazol-3-ylamino)-phenol] | 
5.3 | 2000 | Oc1ccc(Nc2cc(-c3csc4ccccc34)[nH]n2)cc1 [Compound L, 4-(Benzo[b]thiophen-3-yl-1H-pyrazol-3-ylamino)-phenol] | 
2.3 | 80 | NS(=O)(=O)c1ccc(Nc2cc(-c3csc4ccc(Br)cc34)[nH]n2)cc1 [Compound U, {5-[3-(5-Bromo)-benzo[b]Thiophenyl]-1-H-pyrazol-3-yl}-phenylamine-4-Sulfonamide] | 
